In patent publication EP4610269A1, “UROKINASE PLASMINOGEN ACTIVATOR SURFACE RECEPTOR (UPAR) LIGANDS FOR DIAGNOSTIC OR THERAPEUTIC USE” (3B Pharmaceuticals GmbH, priority 2024, dated 2025):
Read-outs that look alike come from different tables or passages of the source. *1 amine or outer side, *2 acyl side, *3 side chain or, on linkers, in order; H or OH if unused. Where a SMILES comes first, the peptide text is derived from it. Bridges are numbered along the chain shown (N, C = ends). [ ]: non-standard residue; d: D form. The star is where a group is joined. GdDOTA = Gd(III) DOTA conjugate, O=C([O-])CN1CCN(CC(=O)[O-])CCN(CC(=O)*)CCN(CC(=O)[O-])CC1.[Gd+3]; X4 = C[N+](C)(CCCC[C@H](NC(=O)CN1CCN(CC(=O)O)CCN(CC(=O)O)CCN(CC(=O)O)CC1)C(=O)*)CCCS(=O)(=O)[O-]; DOTA = O=C(O)CN1CCN(CC(=O)O)CCN(CC(=O)*)CCN(CC(=O)O)CC1; X5 = O=C(O)CN1CCN(CC(=O)O)CCN([C@H](CCC(=O)*)C(=O)O)CC1; Pro(cis-4-F) = O=C(O)[C@@H]1C[C@H](F)CN1; Pro(4R-NH2) = N[C@H]1CN[C@H](C(=O)O)C1; Dopa = N[C@@H](Cc1ccc(O)c(O)c1)C(=O)O; NMeY = CN[C@@H](Cc1ccc(O)cc1)C(=O)O; mTyr = N[C@@H](Cc1cccc(O)c1)C(=O)O; Hyp = O=C(O)[C@@H]1C[C@@H](O)CN1; hArg = N=C(N)NCCCC[C@H](N)C(=O)O; Pentanoyl(4-Me) = CC(C)CCC(=O)*; Cit = NC(=O)NCCC[C@H](N)C(=O)O; Butoxycarbonyl = CCCCOC(=O)*; Propanoyl(3-OH) = O=C(CCO)*; Nle = CCCC[C@H](N)C(=O)O; Orn = NCCC[C@H](N)C(=O)O; dNMeA = CN[C@H](C)C(=O)O; Nva = CCC[C@H](N)C(=O)O; Pentanoyl = CCCCC(=O)*; CO = O=C([*:1])[*:2]; NHBu = CCCCN*

Columns and labels:
[1] = molecular target: T1, human uPAR (uPAR-Fc) (Homo sapiens, UniProt Q03405); assay: Surface plasmon resonance (SPR) assay, single cycle kinetics; type: binding; settings: pKD category for uPAR SPR activity assay, uPAR-Fc on Protein A-Chip, 25°C; for Kd: read-out: pKD CAT (converted)
T1 construct: comprising amino acids Leu23-Arg303 according to UniProt entry Q03405.1; purchased R&D Systems 10378-UK-100
Outline: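 uPAR-Fc (Leu23-Arg303 extracellular domains, human IgG1 Fc) captured on Protein A chip to ~2000 RU; single-cycle kinetics at 25°C in HEPES running buffer pH 7.4 with 0.1% DMSO. KD from double-referenced sensorgrams fitted to 1:1 Langmuir model, reported as pKD.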

[2] = molecular target: T2, uPAR-expressing HEC-265 human endometrial adenocarcinoma cells (Homo sapiens, UniProt Q03405); assay: Competitive FACS binding assay; settings: pIC50 category of FACS binding
T2 construct: Cell surface uPAR-expressing HEC-265 human endometrial adenocarcinoma cells; host or cells: HEC-265
Outline: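 HEC-265 cells incubated 1 h at 4 °C with 10 nM biotinylated uPAR peptide tracer plus increasing test compound, then stained with APC-streptavidin on ice. Median APC fluorescence by flow cytometry; 4PL fit gives pIC50.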

T2 sequence (Q03405 23-335): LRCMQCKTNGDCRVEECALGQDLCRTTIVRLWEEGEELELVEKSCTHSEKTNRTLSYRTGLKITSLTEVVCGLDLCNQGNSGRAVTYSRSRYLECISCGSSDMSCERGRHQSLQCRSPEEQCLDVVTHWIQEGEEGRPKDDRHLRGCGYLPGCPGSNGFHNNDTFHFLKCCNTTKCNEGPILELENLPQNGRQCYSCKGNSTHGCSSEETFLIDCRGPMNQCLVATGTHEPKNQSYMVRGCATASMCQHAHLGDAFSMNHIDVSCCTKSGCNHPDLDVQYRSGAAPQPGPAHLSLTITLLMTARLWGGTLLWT
T1 sequence (Q03405 23-303): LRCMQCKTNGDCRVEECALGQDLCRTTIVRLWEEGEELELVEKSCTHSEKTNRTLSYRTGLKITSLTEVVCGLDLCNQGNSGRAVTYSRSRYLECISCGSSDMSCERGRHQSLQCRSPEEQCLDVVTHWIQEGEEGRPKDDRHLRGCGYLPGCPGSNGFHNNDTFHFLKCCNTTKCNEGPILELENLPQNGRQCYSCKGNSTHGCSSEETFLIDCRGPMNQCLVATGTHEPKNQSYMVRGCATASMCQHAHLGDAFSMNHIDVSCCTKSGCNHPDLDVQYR

Molecule	Kd ([1]; single cycle kinetics) [nM]	IC50 [2] [nM]	Kd [1] [nM]	pKD CAT ([1]; single cycle kinetics)	pIC50 CAT [2]
CC[C@H](C)[C@@H]1NC(=O)[C@@H](C)NC(=O)[C@@H]2CCCN2C(=O)[C@H](Cc2ccccc2)NC(=O)[C@H](Cc2ccc(O)cc2)NC(=O)[C@H](CCC(N)=O)NC(=O)[C@@H](CCCNC(=N)N)NC(=O)[C@@H](NC(=O)CCC(C)C)CSSC[C@@H](C(N)=O)NC(=O)[C@H](CC(C)C)NC1=O [UPAR-467, iHex-[Cys-arg-Gln-Tyr-Phe-Pro-ala-Ile-Leu-Cys]-NH2] ({Pentanoyl(4-Me)}-C[dR]QYFP[dA]ILC-NH2; disulfide 1-10)	10 to 100	≥ 126			
CCCCC(=O)N[C@H]1CSSC[C@@H](C(N)=O)NC(=O)[C@H](CCC)NC(=O)[C@H](Cc2ccccc2)NC(=O)[C@@H]2C[C@@H](O)CN2C(=O)[C@@H]2CCCN2C(=O)[C@H](Cc2ccccc2)NC(=O)[C@H](Cc2ccc(O)cc2)NC(=O)[C@H](CCC(N)=O)NC(=O)[C@H](CCCNC(=N)N)NC1=O [UPAR-447, Pent-[Cys-Arg-Gln-Tyr-Phe-Pro-Hyp-Phe-Nva-Cys]-NH2] (Pentanoyl-CRQYFP[Hyp]F[Nva]C-NH2; disulfide 1-10)	< 1.58	≤ 10			
CCCCC(=O)N[C@H]1CSSC[C@@H](C(=O)NCC(N)=O)NC(=O)[C@H](CCC)NC(=O)[C@H]([C@@H](C)CC)NC(=O)[C@@H]2C[C@@H](O)CN2C(=O)[C@@H]2CCCN2C(=O)[C@H](Cc2ccccc2)NC(=O)[C@H](Cc2ccc(O)cc2)NC(=O)[C@H](CCC(N)=O)NC(=O)[C@H](CCCNC(N)=O)NC1=O [UPAR-206, Pent-[Cys-Cit-Gln-Tyr-Phe-Pro-Hyp-Ile-Nva-Cys]-Gly-NH2] (Pentanoyl-C[Cit]QYFP[Hyp]I[Nva]CG-NH2; disulfide 1-10)		12.6 to 31.6	1.58 to 10		
CC[C@H](C)[C@@H]1NC(=O)[C@@H](C)NC(=O)[C@@H]2CCCN2C(=O)[C@H](Cc2ccccc2)NC(=O)[C@H](Cc2ccc(O)cc2)NC(=O)[C@H](CCC(N)=O)NC(=O)[C@H](CCCNC(N)=O)NC(=O)[C@@H](NC(=O)CNC(C)=O)CSSC[C@@H](C(N)=O)NC(=O)[C@H](CC(C)C)NC1=O [UPAR-334, Ac-Gly-[Cys-Cit-Gln-Tyr-Phe-Pro-ala-Ile-Leu-Cys]-NH2] (Ac-GC[Cit]QYFP[dA]ILC-NH2; disulfide 2-11)		≥ 126	> 100		
CC[C@H](C)[C@@H]1NC(=O)[C@@H]2C[C@@H](N)CN2C(=O)[C@@H]2CCCN2C(=O)[C@H](Cc2ccccc2)NC(=O)[C@H](Cc2ccc(O)cc2)NC(=O)[C@H](CCC(N)=O)NC(=O)[C@H](CCCNC(N)=O)NC(=O)[C@@H](NC(=O)CCC(C)C)CSSC[C@@H](C(N)=O)NC(=O)[C@H](CC(C)C)NC1=O [UPAR-295, iHex-[Cys-Cit-Gln-Tyr-Phe-Pro-Tap-Ile-Leu-Cys]-NH2] ({Pentanoyl(4-Me)}-C[Cit]QYFP[Pro(4R-NH2)]ILC-NH2; disulfide 1-10)		≤ 10	< 1.58		
CCCCOC(=O)N[C@H]1CSSC[C@@H](C(N)=O)NC(=O)[C@H](CCC)NC(=O)[C@H]([C@@H](C)CC)NC(=O)[C@@H]2C[C@@H](O)CN2C(=O)[C@@H]2C[C@H](F)CN2C(=O)[C@H](Cc2ccccc2)NC(=O)[C@H](Cc2ccc(O)cc2)NC(=O)[C@H](CCCCNC(=O)[C@H](CCCC[N+](C)(C)CCCS(=O)(=O)[O-])NC(=O)CN2CCN(CC(=O)O)CCN(CC(=O)O)CCN(CC(=O)O)CC2)NC(=O)[C@H]([C@@H](C)O)NC1=O [UPAR-422, Butoc-[Cys-Thr-Lys(DOTA-Kzw)-Tyr-Phe-4Cfp-Hyp-Ile-Nva-Cys]-NHz] (Butoxycarbonyl-CTK(X4)YF[Pro(cis-4-F)][Hyp]I[Nva]C-NH2; disulfide 1-10)	< 1.58	≤ 10			
CCCCOC(=O)N[C@H]1CSSC[C@@H](C(N)=O)NC(=O)[C@H](CCC)NC(=O)[C@H]([C@@H](C)CC)NC(=O)[C@@H]2C[C@@H](O)CN2C(=O)[C@@H]2C[C@H](F)CN2C(=O)[C@H](Cc2ccccc2)NC(=O)[C@H](Cc2cccc(O)c2)NC(=O)[C@H](CCCNC(=O)CN2CCN(CC(=O)O)CCN(CC(=O)O)CCN(CC(=O)O)CC2)NC(=O)[C@H]([C@@H](C)O)NC1=O [UPAR-415, Butoc-[Cys-Thr-Orn(DOTA)-My-Phe-4Cfp-Hyp-Ile-Nva-Cys]-NH2] (Butoxycarbonyl-CT[Orn](DOTA)[mTyr]F[Pro(cis-4-F)][Hyp]I[Nva]C-NH2; disulfide 1-10)	< 1.58	≤ 10			
CC[C@H](C)[C@@H]1NC(=O)[C@@H](C)NC(=O)[C@@H]2CCCN2C(=O)[C@H](Cc2ccccc2)NC(=O)[C@H](Cc2ccc(O)cc2)N(C)C(=O)[C@H](CCC(N)=O)NC(=O)[C@H](CCCNC(N)=O)NC(=O)[C@@H](NC(=O)CCC(C)C)CSSC[C@@H](C(N)=O)NC(=O)[C@H](CC(C)C)NC1=O [UPAR-285, iHex-[Cys-Cit-Gln-Nmy-Phe-Pro-ala-Ile-Leu-Cys]-NH2] ({Pentanoyl(4-Me)}-C[Cit]Q[NMeY]FP[dA]ILC-NH2; disulfide 1-10)		≥ 126	> 100		
CCCC[C@@H]1NC(=O)[C@H](CCCNC(=N)N)NC(=O)[C@@H](NC(=O)[C@H](CC(C)C)NC(=O)[C@H](CC(=O)O)NC(C)=O)CSSC[C@@H](C(N)=O)NC(=O)[C@H](CC(C)C)NC(=O)[C@H]([C@@H](C)CC)NC(=O)[C@H](C)NC(=O)[C@@H]2CCCN2C(=O)[C@H](Cc2ccccc2)NC(=O)[C@H](Cc2ccc(O)cc2)NC1=O [UPAR-270, Ac-Asp-Leu-[Cys-Arg-Nle-Tyr-Phe-Pro-Ala-Ile-Leu-Cys]-NH2] (Ac-DLCR[Nle]YFPAILC-NH2; disulfide 3-12)		≤ 10	< 1.58		
CCCCNC(=O)N[C@H]1CSSC[C@@H](C(N)=O)NC(=O)[C@H](CC(C)C)NC(=O)[C@H]([C@@H](C)CC)NC(=O)[C@@H](C)NC(=O)[C@@H]2CCCN2C(=O)[C@H](Cc2ccccc2)NC(=O)[C@H](Cc2ccc(O)cc2)NC(=O)[C@H](CCC(N)=O)NC(=O)[C@H](CCCNC(N)=O)NC1=O [UPAR-286, nBuCAyl-[Cys-Cit-Gln-Tyr-Phe-Pro-ala-Ile-Leu-Cys]-NH2] ({NHBu-CO}-C[Cit]QYFP[dA]ILC-NH2; disulfide 1-10)		≤ 10	< 1.58		
CCCCC(=O)N[C@H]1CSSC[C@@H](C(N)=O)NC(=O)[C@H](CCC)NC(=O)[C@H]([C@@H](C)CC)NC(=O)[C@@H](C)N(C)C(=O)[C@@H]2CCCN2C(=O)[C@H](Cc2ccccc2)NC(=O)[C@H](Cc2ccc(O)cc2)NC(=O)[C@H](CCCCNC(=O)CN2CCN(CC(=O)O)CCN(CC(=O)O)CCN(CC(=O)O)CC2)NC(=O)[C@H](CCCNC(N)=O)NC1=O [UPAR-384, Pent-[Cys-Cit-Lys(DOTA)-Tyr-Phe-Pro-nma-Ile-Nva-Cys]-NH2] (Pentanoyl-C[Cit]K(DOTA)YFP[dNMeA]I[Nva]C-NH2; disulfide 1-10)	< 1.58	≤ 10			
CCCC[C@@H]1NC(=O)[C@H]([C@@H](C)CC)NC(=O)[C@@H](C)NC(=O)[C@@H]2CCCN2C(=O)[C@H](Cc2ccccc2)NC(=O)[C@H](Cc2ccc(O)cc2)NC(=O)[C@H](CCC(N)=O)NC(=O)[C@H](CCCNC(N)=O)NC(=O)[C@@H](NC(=O)CCC(C)C)CSSC[C@@H](C(N)=O)NC1=O [UPAR-345, iHex-[Cys-Cit-Gln-Tyr-Phe-Pro-ala-Ile-Nle-Cys]-NH2] ({Pentanoyl(4-Me)}-C[Cit]QYFP[dA]I[Nle]C-NH2; disulfide 1-10)	1.58 to 10	≤ 10			
CCCC[C@@H]1NC(=O)[C@H](CCCNC(=N)N)NC(=O)[C@@H](NC(=O)[C@H](CC(C)C)NC(=O)[C@H](CC(=O)O)NC(C)=O)CSSC[C@H](C(N)=O)NC(=O)[C@H](CC(C)C)NC(=O)[C@H]([C@@H](C)CC)NC(=O)[C@H](C)NC(=O)[C@@H]2CCCN2C(=O)[C@H](Cc2ccccc2)NC(=O)[C@H](Cc2ccc(O)cc2)NC1=O [UPAR-323, Ac-Asp-Leu-[Cys-Arg-Nle-Tyr-Phe-Pro-Ala-Ile-Leu-cys]-NH2] (Ac-DLCR[Nle]YFPAIL[dC]-NH2; disulfide 3-12)		12.6 to 31.6	1.58 to 10		
CCCCOC(=O)N[C@H]1CSSC[C@@H](C(N)=O)NC(=O)[C@H](CCC)NC(=O)[C@H]([C@@H](C)CC)NC(=O)[C@@H]2C[C@@H](O)CN2C(=O)[C@@H]2C[C@H](F)CN2C(=O)[C@H](Cc2ccccc2)NC(=O)[C@H](Cc2ccc(O)c(O)c2)NC(=O)[C@H](CCCCNC(=O)CC[C@H](C(=O)O)N2CCN(CC(=O)O)CCN(CC(=O)O)CC2)NC(=O)[C@H]([C@@H](C)O)NC1=O [UPAR-444, Butoc-[Cys-Thr-Lys(NODAGA)-Dopa-Phe-4Cfp-Hyp-Ile-Nva-Cys]-NH2] (Butoxycarbonyl-CTK(X5)[Dopa]F[Pro(cis-4-F)][Hyp]I[Nva]C-NH2; disulfide 1-10)	< 1.58	≤ 10			
Pent-[Cys-Har-Lys(GdDOTA)-Tyr-Phe-Pro-Hyp-Ile-Nva-Cys]-NH2 (Pentanoyl-C[hArg]K(GdDOTA)YFP[Hyp]I[Nva]C-NH2; disulfide 1-10; not fully specified; also: Gd(III) complexed by DOTA) [UPAR-376]				A (pKD values ≥ 8.8)	A (pIC50 values ≥8.0)
CC[C@H](C)[C@@H]1NC(=O)[C@@H](C)NC(=O)[C@@H]2CCCN2C(=O)[C@H](Cc2ccccc2)NC(=O)[C@H](Cc2ccc(O)cc2)NC(=O)[C@H](CCC(N)=O)NC(=O)[C@H](CCCNC(N)=O)NC(=O)[C@@H](NC(=O)CCO)CSSC[C@@H](C(N)=O)NC(=O)[C@H](CC(C)C)NC1=O [UPAR-272, HPA-[Cys-Cit-Gln-Tyr-Phe-Pro-ala-Ile-Leu-Cys]-NH2] ({Propanoyl(3-OH)}-C[Cit]QYFP[dA]ILC-NH2; disulfide 1-10)		39.8 to 100	> 100		
